Data as given in patent US11242350B2, “Spirocyclic ROR-gamma modulators” (Escalier Biosciences B.V., priority 2018, dated 2022).

Target: RORγt (Homo sapiens (Human), UniProt P51449)
Experiment: Gal4 ligand binding assay (RORγt Gal fusion luciferase reporter assay in HEK293T cells)
Type: cell-based
Settings: RORγt inverse agonists in RORγt Gal fusion assay
Protocol: The N-terminal DNA binding domains (DBD) of the native RORγ and RORγt receptors have been substituted with that of the yeast GAL4-DBD and stably transfected in HEK293T cells that also stably express luciferase under the regulation by upstream activation sequence of yeast Gal4. These cells constitutively express high level RORγ activity due to binding of endogenous co-factors. Both agonist and inverse agonist activity can be detected. The assay was performed according to kit manufacturer's instructions as follows. 10 mM compound stocks were diluted serially 1:3 with DMSO and further diluted with provided media to generate 10 titration points from 60 μM to 3 nM. These treatment conditions were added to the plates as 2× media in 100 μL volume. Each plate includes a positive control with 10 titration points as well as 6 negative control wells with vehicle only, with final DMSO concentration of 0.2%. RORγ reporter cells were rapidly thawed and added to the plates in 100 μL volume. The plates were incubated for 24 h in a 37° C. humidified 5% CO2 incubator. Media was removed before the addition of room temperature luciferous detection substrate. After 5 minute incubation, relative light units (RLUs) were quantified using a plate reading luminometer. Data was normalized to […] with only 0.2%0DMSO. Before establishing internal controls, ursolic acid was used as control.

Chain of RORγt (P51449 269-508): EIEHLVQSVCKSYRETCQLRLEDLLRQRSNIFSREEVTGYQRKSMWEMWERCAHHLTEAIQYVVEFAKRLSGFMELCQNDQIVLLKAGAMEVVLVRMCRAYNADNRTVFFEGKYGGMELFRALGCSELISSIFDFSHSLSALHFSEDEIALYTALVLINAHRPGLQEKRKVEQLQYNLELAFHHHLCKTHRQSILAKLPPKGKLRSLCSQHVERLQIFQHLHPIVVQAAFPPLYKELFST

IC50 [nM]	Structure (SMILES)
< 50	CCc1cc(CN2CCC3(C2)CN(S(C)(=O)=O)C3)ccc1-c1ccc(C(O)(C(F)(F)F)C(F)(F)F)cc1 [Example 30, 2-(2′-ethyl-4′-((2-(methylsulfonyl)-2,6-diazaspiro[3.4]octan-6-yl)methyl)-[1,1′-biphenyl]-4-yl)-1,1,1,3,3,3-hexafluoropropan-2-ol]
< 50	CCc1cc(CN2CCC3(CCN(S(C)(=O)=O)C3)C2)ccc1-c1ccc(C(O)(C(F)(F)F)C(F)(F)F)cc1 (centres unmarked) [Example 31, 2-(2′-ethyl-4′-((7-(methylsulfonyl)-2,7-diazaspiro[4.4]nonan-2-yl)methyl)-[1,1′-biphenyl]-4-yl)-1,1,1,3,3,3-hexafluoropropan-2-ol]
> 250	CCc1cc(CN2CC(CNS(C)(=O)=O)C2)ccc1-c1ccc(C(O)(C(F)(F)F)C(F)(F)F)cc1 [Example 32, N-((1-((2-ethyl-4′-(1,1,1,3,3,3-hexafluoro-2-hydroxypropan-2-yl)-[1,1′-biphenyl]-4-yl)methyl)azetidin-3-yl)methyl)methanesulfonamide]
50 to 250	CCc1cc(CN2CC3(CCN(S(C)(=O)=O)CC3)C2)ccc1-c1ccc(C(O)(C(F)(F)F)C(F)(F)F)cc1 [Example 33, 2-(2′-ethyl-4′-((7-(methylsulfonyl)-2,7-diazaspiro[3.5]nonan-2-yl)methyl)-[1,1′-biphenyl]-4-yl)-1,1,1,3,3,3-hexafluoropropan-2-ol]
< 50	CCc1cc(CN2CC3(C2)CN(S(C)(=O)=O)C3)ccc1-c1ccc(C(O)(C(F)(F)F)C(F)(F)F)cc1F [Example 34, 2-(2′-ethyl-2-fluoro-4′-((6-(methylsulfonyl)-2,6-diazaspiro[3.3]heptan-2-yl)methyl)-[1,1′-biphenyl]-4-yl)-1,1,1,3,3,3-hexafluoropropan-2-ol]
< 50	CCc1cc(CN2CC3(C2)CN(S(C)(=O)=O)C3)cc(F)c1-c1ccc(C(O)(C(F)(F)F)C(F)(F)F)cc1 [Example 35, 2-(2′-ethyl-6′-fluoro-4′-((6-(methylsulfonyl)-2,6-diazaspiro[3.3]heptan-2-yl)methyl)-[1,1′-biphenyl]-4-yl)-1,1,1,3,3,3-hexafluoropropan-2-ol]
< 50	CCc1cc(CN2CC3(C2)CN(S(C)(=O)=O)C3)c(F)cc1-c1ccc(C(O)(C(F)(F)F)C(F)(F)F)cc1 [Example 36, 2-(2′-ethyl-5′-fluoro-4′-((6-(methylsulfonyl)-2,6-diazaspiro[3.3]heptan-2-yl)methyl)-[1,1′-biphenyl]-4-yl)-1,1,1,3,3,3-hexafluoropropan-2-ol]
< 50	CCc1c(-c2ccc(C(O)(C(F)(F)F)C(F)(F)F)cc2)ccc(CN2CC3(C2)CN(S(C)(=O)=O)C3)c1F [Example 37, 2-(2′-ethyl-3′-fluoro-4′-((6-(methylsulfonyl)-2,6-diazaspiro[3.3]heptan-2-yl)methyl)-[1,1′-biphenyl]-4-yl)-1,1,1,3,3,3-hexafluoropropan-2-ol]
50 to 250	CCc1cc(CN2CC3(CCN(C(=O)OC(C)(C)C)C3)C2)ccc1-c1ccc(C(O)(C(F)(F)F)C(F)(F)F)cc1 [Example 38, tert-butyl 2-((2-ethyl-4′-(1,1,1,3,3,3-hexafluoro-2-hydroxypropan-2-yl)-[1,1′-biphenyl]-4-yl)methyl)-2,6-diazaspiro[3.4]octane-6-carboxylate]
< 50	CCc1cc(CN2CC3(C2)CN(S(C)(=O)=O)C3)ccc1-c1ccc(C(O)(C(F)(F)F)C(F)(F)F)cc1C [Example 39, 2-(2′-ethyl-2-methyl-4′-((6-(methylsulfonyl)-2,6-diazaspiro[3.3]heptan-2-yl)methyl)-[1,1′-biphenyl]-4-yl)-1,1,1,3,3,3-hexafluoropropan-2-ol]
50 to 250	CCc1cc(CN2CC3(C2)CN(C(=O)OC)C3)ccc1-c1ccc(C(O)(C(F)(F)F)C(F)(F)F)cc1 [Example 40, methyl 6-((2-ethyl-4′-(1,1,1,3,3,3-hexafluoro-2-hydroxypropan-2-yl)-[1,1′-biphenyl]-4-yl)methyl)-2,6-diazaspiro[3.3]heptane-2-carboxylate]
50 to 250	CCc1cc(CN2CC3(C2)CN(S(=O)(=O)C2CC2)C3)ccc1-c1ccc(C(O)(C(F)(F)F)C(F)(F)F)cc1 [Example 41, 2-(4′-((6-(cyclopropylsulfonyl)-2,6-diazaspiro[3.3]heptan-2-yl)methyl)-2′-ethyl-[1,1′-biphenyl]-4-yl)-1,1,1,3,3,3-hexafluoropropan-2-ol]
< 50	CS(=O)(=O)N1CC2(CN(Cc3ccc(-c4ccc(C(O)(C(F)(F)F)C(F)(F)F)cc4)c(C4CC4)c3)C2)C1 [Example 42, 2-(2′-cyclopropyl-4′-((6-(methylsulfonyl)-2,6-diazaspiro[3.3]heptan-2-yl)methyl)-[1,1′-biphenyl]-4-yl)-1,1,1,3,3,3-hexafluoropropan-2-ol]
< 50	CC(C)c1cc(CN2CC3(C2)CN(S(C)(=O)=O)C3)ccc1-c1ccc(C(O)(C(F)(F)F)C(F)(F)F)cc1 [Example 43, 1,1,1,3,3,3-hexafluoro-2-(2′-isopropyl-4′-((6-(methylsulfonyl)-2,6-diazaspiro[3.3]heptan-2-yl)methyl)-[1,1′-biphenyl]-4-yl)propan-2-ol]
< 50	C=C(C)c1cc(CN2CC3(C2)CN(S(C)(=O)=O)C3)ccc1-c1ccc(C(O)(C(F)(F)F)C(F)(F)F)cc1 [Example 44, 1,1,1,3,3,3-hexafluoro-2-(4′-((6-(methylsulfonyl)-2,6-diazaspiro[3.3]heptan-2-yl)methyl)-2′-(prop-1-en-2-yl)-[1,1′-biphenyl]-4-yl)propan-2-ol]
50 to 250	CS(=O)(=O)N1CC2(CN(Cc3ccc(-c4ccc(C(O)(C(F)(F)F)C(F)(F)F)cc4)c(Br)c3)C2)C1 [Example 45, 2-(2′-bromo-4′-((6-(methylsulfonyl)-2,6-diazaspiro[3.3]heptan-2-yl)methyl)-[1,1′-biphenyl]-4-yl)-1,1,1,3,3,3-hexafluoropropan-2-ol]
50 to 250	CS(=O)(=O)N1CC2(CN(Cc3ccc(-c4ccc(C(O)(C(F)(F)F)C(F)(F)F)cc4)c(C(F)(F)F)c3)C2)C1 [Example 46, 1,1,1,3,3,3-hexafluoro-2-(4′-((6-(methylsulfonyl)-2,6-diazaspiro[3.3]heptan-2-yl)methyl)-2′-(trifluoromethyl)-[1,1′-biphenyl]-4-yl)propan-2-ol]
> 250	CS(=O)(=O)N1CC2(CN(Cc3ccc(-c4ccc(C(O)(C(F)(F)F)C(F)(F)F)cc4)c(Cl)c3)C2)C1 [Example 47, 2-(2′-chloro-4′-((6-(methylsulfonyl)-2,6-diazaspiro[3.3]heptan-2-yl)methyl)-[1,1′-biphenyl]-4-yl)-1,1,1,3,3,3-hexafluoropropan-2-ol]
> 250	CCc1cc(CN2CC3(C2)CN(C(C)=O)C3)ccc1-c1ccc(C(O)(C(F)(F)F)C(F)(F)F)cc1 [Example 48, 1-(6-((2-ethyl-4′-(1,1,1,3,3,3-hexafluoro-2-hydroxypropan-2-yl)-[1,1′-biphenyl]-4-yl)methyl)-2,6-diazaspiro[3.3]heptan-2-yl)ethan-1-one]
> 250	CC(=O)N1CC2(CN(Cc3ccc(-c4ccc(C(O)(C(F)(F)F)C(F)(F)F)cc4)c(C)c3)C2)C1 [Example 49, 1-(6-((4′-(1,1,1,3,3,3-hexafluoro-2-hydroxypropan-2-yl)-2-methyl-[1,1′-biphenyl]-4-yl)methyl)-2,6-diazaspiro[3.3]heptan-2-yl)ethan-1-one]
50 to 250	Cc1cc(CN2CC3(C2)CN(S(C)(=O)=O)C3)ccc1-c1ccc(C(O)(C(F)(F)F)C(F)(F)F)cc1 [Example 50, 1,1,1,3,3,3-hexafluoro-2-(2′-methyl-4′-((6-(methylsulfonyl)-2,6-diazaspiro[3.3]heptan-2-yl)methyl)-[1,1′-biphenyl]-4-yl)propan-2-ol]
> 250	Cc1cc(CN2CC3(CN(Cc4ccncc4)C3)C2)ccc1-c1ccc(C(O)(C(F)(F)F)C(F)(F)F)cc1 [Example 51, 1,1,1,3,3,3-hexafluoro-2-(2′-methyl-4′-((6-(pyridin-4-ylmethyl)-2,6-diazaspiro[3.3]heptan-2-yl)methyl)-[1,1′-biphenyl]-4-yl)propan-2-ol]
50 to 250	CCc1cc(CN2CC3(C2)CN(S(C)(=O)=O)C3)cnc1-c1ccc(C(O)(C(F)(F)F)C(F)(F)F)cc1 [Example 52, 2-(4-(3-ethyl-5-((6-(methylsulfonyl)-2,6-diazaspiro[3.3]heptan-2-yl)methyl)pyridin-2-yl)phenyl)-1,1,1,3,3,3-hexafluoropropan-2-ol]
50 to 250	CCc1cc(CN2CCC3(CCNC3=O)C2)ccc1-c1ccc(C(O)(C(F)(F)F)C(F)(F)F)cc1 (centres unmarked) [Example 53, 7-((2-ethyl-4′-(1,1,1,3,3,3-hexafluoro-2-hydroxypropan-2-yl)-[1,1′-biphenyl]-4-yl)methyl)-2,7-diazaspiro[4.4]nonan-1-one]
50 to 250	CCc1cc(CN2CCC3(CNC(=O)C3)C2)ccc1-c1ccc(C(O)(C(F)(F)F)C(F)(F)F)cc1 (centres unmarked) [Example 54, 7-((2-ethyl-4′-(1,1,1,3,3,3-hexafluoro-2-hydroxypropan-2-yl)-[1,1′-biphenyl]-4-yl)methyl)-2,7-diazaspiro[4.4]nonan-3-one]
> 250	CN(C)C(=O)c1cc(CN2CC3(C2)CN(S(C)(=O)=O)C3)ccc1-c1ccc(C(O)(C(F)(F)F)C(F)(F)F)cc1 [Example 55, 4′-(1,1,1,3,3,3-hexafluoro-2-hydroxypropan-2-yl)-N,N-dimethyl-4-((6-(methylsulfonyl)-2,6-diazaspiro[3.3]heptan-2-yl)methyl)-[1,1′-biphenyl]-2-carboxamide]
